Assay results published in article PMC3813957 (Cancer prevention research (Philadelphia, Pa.), 2013).
Where two headings read alike, the source gives them in different places.

Columns and labels:
[1] = test system: methylnitrosourea-induced mammary cancers; assay: Prevention of methylnitrosourea-induced mammary carcinogenesis; type: in vivo, female Sprague-Dawley rats; conditions: for reduction of final tumor multiplicity: 6 mg/kg BW
[2] = cited from earlier work
[3] = Serum pharmacokinetics of erlotinib and OSI-420 after gavage; conditions: for concentration at 2 h / concentration at 4 h / concentration at 8 h / concentration at 24 h / concentration at 48 h / half-life / AUC(0-t) / Cmax / Tmax: female, Sprague-Dawley, rat, serum
[4] = test system: phosphorylated ERKs (T202/Y204); assay: Biomarker study: Western blot of phosphorylated ERK in mammary cancers; type: in vivo, female Sprague-Dawley rats
[5] = test system: carcinogen-induced urinary bladder model; conditions: ref Lubet and Grubbs, unpublished data; cited from earlier work
[6] = human, 150 mg, steady state; cited from earlier work
[7] = test system: transgenic model of ER negative breast cancer; conditions: ref Lubet and Grubbs, unpublished data; cited from earlier work
[8] = test system: established mammary cancers induced by methylnitrosourea; assay: Therapy of established; type: in vivo, female Sprague-Dawley rats; conditions: for reduction of average tumor size: vehicle group increased 250%
[9] = test system: brain metastases; conditions: nine patients, median dose 1500 mg weekly; cited from earlier work
[10] = test system: MNU-induced rat mammary cancers; conditions: varied doses; cited from earlier work
[11] = Experiment C, weekly dosing at either 42 or 21 mg/kg BW
[12] = rat 42 mg/kg BW vs human 150 mg
[13] = rat effective daily dose (6 mg/kg BW) vs human

For `C#Cc1cccc(Nc2ncnc3cc(OCCOC)c(OCCOC)cc23)c1` [Erlotinib], which “tumor incidence and latency” value ([1]; Experiment A, 6 mg/kg BW daily, one day on/one day off, or two days on/two days off, all three regimens vs controls P<.01) is on record?
Its value is “reductions of tumor incidence and increases in latency”.

What about the “reduction of final tumor multiplicity” value ([1]; Experiment A, 2 days on/2 days off, vs vehicle controls P<.001) of the same molecule?
Its value is 75%.

What about the “reduction of final tumor multiplicity” value ([1]; Experiment A, intermittent dosing (both schedules)) of the same molecule?
The value was 65–75%.

What about the “tumor incidence and latency” value ([1]; Experiment B, 6 mg/kg BW daily, 6 mg/kg BW two days on/two days off, or 42 mg/kg BW weekly, all three vs controls P<.01) of the same molecule?
Its value is “reduced tumor incidence and increased tumor latency”.

And the “reduction of tumor multiplicity” value ([1]; Experiment B, 6 mg/kg BW daily, vs controls P<.005)?
The value was 85%.

What about the tumor incidence [1, 11] of the same molecule?
The tumor incidence was “strongly inhibited”.

And the tumor multiplicity [1, 11]?
The tumor multiplicity was “strongly inhibited”.

And the “preventive activity (tumor incidence and multiplicity)” value ([1]; initial studies, 6 mg/Kg BW/day, data not shown)?
The value was “highly effective”.

What about the “tumor incidence and multiplicity” value ([1]; initial studies, various daily doses up to 6 mg/kg BW/day) of the same molecule?
Its value is “dose dependent decrease”.

What about the “decrease of tumor multiplicity” value ([1]; lower weekly dose 21 mg/kg BW) of the same molecule?
The value was “approximately 85%”.

And the “patients with moderate (grade 2) rash” value ([2]; 2000 mg/week)?
Its value is 42%.

And the “severe (grade 3) rash or diarrhea” value ([2]; weekly dosing, doses up to 2000 mg/week, any dose level)?
Its value is “no severe (grade 3) rash or diarrhea”.

What about the concentration at 2 h ([3]; oral, 6 mg/kg BW/day) of the same molecule?
The concentration at 2 h was 708 ± 48 ng/mL.

What about the concentration at 4 h ([3]; oral, 6 mg/kg BW/day) of the same molecule?
Its concentration at 4 h is 427 ± 19 ng/mL.

What about the concentration at 8 h ([3]; oral, 6 mg/kg BW/day) of the same molecule?
The concentration at 8 h was 277 ± 102 ng/mL.

What about the concentration at 24 h ([3]; oral, 6 mg/kg BW/day) of the same molecule?
The concentration at 24 h was 25 ± 9 ng/mL.

What about the concentration at 48 h ([3]; oral, 6 mg/kg BW/day) of the same molecule?
The concentration at 48 h was 0 ng/mL.

And the half-life ([3]; oral, 6 mg/kg BW/day, half-life, daily erlotinib (discussion))?
The half-life was 5 to 6 h.

And the concentration at 2 h ([3]; oral, 42 mg/kg BW)?
Its concentration at 2 h is 1350 ± 96 ng/mL.

And the concentration at 4 h ([3]; oral, 42 mg/kg BW)?
The concentration at 4 h was 1060 ± 184 ng/mL.

And the concentration at 8 h ([3]; oral, 42 mg/kg BW)?
The concentration at 8 h was 1590 ± 259 ng/mL.

What about the concentration at 24 h ([3]; oral, 42 mg/kg BW) of the same molecule?
The concentration at 24 h was 470 ± 121 ng/mL.

And the concentration at 48 h ([3]; oral, 42 mg/kg BW)?
The concentration at 48 h was 52 ± 11 ng/mL.

What about the half-life ([3]; oral, serum half-life) of the same molecule?
Its half-life is at most 8 h.

And the AUC(0-t) ([3]; po, 6 mg/kg)?
Its AUC(0-t) is 4680 ng·h/mL.

What about the Cmax ([3]; po, 6 mg/kg) of the same molecule?
The Cmax was 708 ng/mL.

What about the Tmax ([3]; po, 6 mg/kg) of the same molecule?
Its Tmax is 2 h.

And the half-life ([3]; po, 6 mg/kg, T1/2, rat, non-compartmental)?
The half-life was 4.61 h.

And the AUC(0-t) ([3]; po, 42 mg/kg)?
Its AUC(0-t) is 28400 ng·h/mL.

And the Cmax ([3]; po, 42 mg/kg)?
Its Cmax is 1590 ng/mL.

What about the Tmax ([3]; po, 42 mg/kg) of the same molecule?
The Tmax was 8 h.

What about the half-life ([3]; po, 42 mg/kg, T1/2, rat, non-compartmental) of the same molecule?
Its half-life is 8.06 h.

What about the “AUC relative to the human dose” value ([3]; rat 6 mg/Kg BW vs human 150 mg) of the same molecule?
The value was under 20%.

And the “Cmax relative to human levels” value ([3]; rat 6 mg/Kg BW vs human 150 mg)?
Its value is under 50%.

And the “AUC compared with the human” value [3, 12]?
Its value is “similar”.

And the “Cmax compared with that achieved in humans” value [3, 12]?
Its value is “similar”.

And the “AUC less than in the human” value [3, 13]?
The value was 5 ×.

And the “Cmax lower than in the human” value [3, 13]?
Its value is “approximately 60%”.

What about the “phosphorylation of ERK in cancers (Western blot)” value ([4]; 6 mg/kg BW/day daily for 7 days) of the same molecule?
The value was “striking decrease”.

What about the “levels of phosphorylated ERK” value ([4]; rats treated daily/weekly (abstract)) of the same molecule?
The value was “strongly decreased”.

What about the “phosphorylated ERK in cancers (Western blot)” value ([4]; single weekly dose 42 mg/kg BW, examined 6 days following the treatment) of the same molecule?
The value was “strong decrease”.

What about the “efficacy of weekly treatment” value [5] of the same molecule?
The value was “strong efficacy”.

And the “AUC0–24” value [6]?
Its value is 26500 ng·h/mL.

And the Cmax [6]?
Its Cmax is 1740 ng/mL.

And the Tmax [6]?
The Tmax was 2.44 h.

And the “efficacy of weekly treatment” value [7]?
The value was “strong efficacy”.

What about the “reduction of average tumor size” value ([8]; 6 mg/kg BW daily for 6 weeks) of the same molecule?
Its value is 40%.

And the “reduction of average tumor size” value ([8]; 42 mg/kg BW weekly for 6 weeks)?
Its value is 25%.

What about the “share of mammary tumors that decreased by 60% in size” value ([8]; either daily (6 mg/kg BW) or weekly (42 mg/kg BW) dosing, 6 weeks) of the same molecule?
Its value is “at least 50%”.

What about the efficacy [9] of the same molecule?
The efficacy was “significant efficacy was observed”.

With `COc1cc2ncnc(Nc3ccc(F)c(Cl)c3)c2cc1OCCCN1CCOCC1` [gefitinib] as the molecule, how does the tumor multiplicity [10] read?
Its tumor multiplicity is “dose dependent decrease”.
